Data published in patent publication US20230321186A1, “Mucin Glycans as Antifungal Agents” (Massachusetts Institute of Technology, priority 2022, published 2023).

Experiments:
Type in all cases: cell-based, Candida albicans
C. albicans SC5314 [1] = assay: RT-qPCR analysis of C. albicans gene expression; conditions: for suppression of filamentation-associated genes: broader range of genes, six synthetic glycans, FIG. 9E; for effect of the added sugar on the gene regulatory activity (YWP1, ECE1) of the unmodified Core: compared with Core 1 or Core 2; for ECE1 transcription / YWP1 transcription: modified Core structures, FIGS. 9C-9D; for YWP1 expression: 0.1% (w/v) synthetic glycan
Description: For RNA extraction from C. albicans grown in the presence or absence of mucin glycans, 100 μL of RPMI or 0.1% w/v MUC5AC glycans in RPMI were inoculated with a 1:50 dilution of an overnight culture of strain SC5314 and incubated at 37° C. for the time indicated. Total RNA was extracted with the MasterPure RNA Purification Kit (Lucigen, Middleton, WI) and residual DNA was removed using the Turbo DNA-free kit (Ambion, Austin, TX). The integrity of the total RNA was assessed using an Agilent 2100 Bioanalyzer (Agilent Technologies, Santa Clara, CA). rRNA was removed using the Ribo-Zero® rRNA Removal Kit (Yeast; Epicentre).
A list of the primers used in this study is provided in Table 1. qPCR with reverse transcription (RT-qPCR) was performed using a two-step method. First-strand cDNA was synthesized from total RNA using the […] First Strand cDNA Synthesis kit (New England Biolabs, Ipswich, MA). The cDNA was used as template for RT-qPCR using a SYBR PowerUp Master Mix kit (Applied Biosystems, Life Technologies) on a Roche LightCycler 480 real-time PCR system. The ACT1 and 18S rRNA genes were used as endogenous controls as specified. […] Changes in gene expression were calculated based on mean change in qPCR cycle threshold (ΔCt) using the ΔΔCt method (fold change=[…]).

C. albicans [2] = assay: Filamentation assay (hyphal growth, phase-contrast images); conditions: 0.4%, RPMI, 37° C., 8 h, vs monosaccharide pool and medium alone
Description: Hyphal growth of C. albicans was induced by diluting cells to OD600=0.05 into prewarmed hyphae-inducing medium as indicated and incubating at 37° C. (200 rpm) in a glass-bottom, 96-well plate. Cells were grown in hyphae-inducing medium for several hours, as described in BRIEF DESCRIPTION OF THE DRAWINGS. Images were acquired with a confocal laser scanning microscope (Zeiss, Oberkochen, Germany; LSM 800) equipped with a ×63/1.4 NA oil-immersion or a 25× objective. Images were analyzed using Zeiss ZEN v.2.1. Representative micrographs are shown.

C. albicans [3] = assay: C. albicans growth (growth curves); conditions: 0.1% (w/v)
Description: Strains were maintained on yeast extract peptone dextrose (YPD) agar (2% Bacto peptone, 2% glucose, 1% yeast extract, 2% agar) and grown at 30° C. Single colonies were inoculated into YPD broth and grown with shaking overnight at 30° C. prior to each experiment. Experiments were performed with Gibco RPMI 1640 medium (Life Technologies, Carlsbad, CA; #31800-089) buffered with 165 mM 3-(N-morpholino)propanesulfonic acid (MOPS) and supplemented with 0.2% NaHCO3 and 2% glucose; YPD medium with 10% fetal bovine serum; GlcNAc medium (0.5% N-acetylglucosamine, 0.5% peptone, 0.3% KH2PO4); Spider medium (1% nutrient broth, 1% D-mannitol, 2 g K2HPO4, 50 mg/mL arginine, 10 mg/mL histidine, and 50 mg/mL tryptophan); or Lee's medium^45. Growth curves were performed in Synthetic Defined (SD)+0.004% (w/v) L-Arginine+0.0025% (w/v) L-Leucine media with 2% glucose.

C. albicans SC5314 [4] = assay: RT-qPCR analysis of C. albicans gene expression; conditions: for ECE1 expression: 0.1% and 0.4%; for YWP1 expression on concentration increase: increase to 0.4% (w/v)

| Structure (SMILES) | suppression of filamentation-associated genes (C. albicans SC5314 [1]) | effect of the added sugar on the gene regulatory activity (YWP1, ECE1) of the unmodified Core (C. albicans SC5314 [1]) | ECE1 transcription (C. albicans SC5314 [1]) | YWP1 transcription (C. albicans SC5314 [1]) | filamentation, synthetic glycan structures (C. albicans [2]) | toxic effects, as measured by C. albicans growth (C. albicans [3]) | YWP1 expression (C. albicans SC5314 [1]) | ECE1 expression (C. albicans SC5314 [4]) | YWP1 expression on concentration increase (C. albicans SC5314 [4]) |
| --- | --- | --- | --- | --- | --- | --- | --- | --- | --- |
| CO[C@H]1O[C@H](CO[C@@H]2O[C@H](CO)[C@@H](O[C@@H]3O[C@H](CO)[C@H](O)[C@H](O)[C@H]3O)[C@H](O)[C@H]2NC(C)=O)[C@H](O)[C@H](O[C@@H]2O[C@H](CO)[C@H](O)[C@H](O)[C@H]2O)[C@H]1NC(C)=O [Core 2+galactose, Methyl β-D-galactopyranosyl-(1→4)-2-acetamido-2-deoxy-β-D-glucopyranosyl-(1→6)-[β-D-galactopyranosyl-(1→3)]-2-acetamido-2-deoxy-α-D-galactopyranoside] | strongest suppression | did not significantly alter Core 2 activity | downregulating ECE1 | transcriptionally upregulated YWP1 | most potently blocked filamentation | – | – | – | – |
| CO[C@H]1O[C@H](CO[C@@H]2O[C@H](CO)[C@@H](O)[C@H](O)[C@H]2NC(C)=O)[C@H](O)[C@H](O[C@@H]2O[C@H](CO)[C@H](O)[C@H](O)[C@H]2O)[C@H]1NC(C)=O [Core 2, Methyl β-D-galactopyranosyl-(1→3)-[2-acetamido-2-deoxy-β-D-glucopyranosyl-(1→6)]-2-acetamido-2-deoxy-α-D-galactopyranoside] | – | – | – | – | – | Neither Core 1 nor Core 2 showed toxic effects | upregulated YWP1 expression at 0.1% (w/v) to a similar degree as the intact mucin pool | suppressed ECE1 expression at 0.1% and 0.4%, albeit less strongly than the mucin glycan pool | did not significantly alter YWP1 expression |
| CO[C@H]1O[C@H](CO)[C@H](O)[C@H](O[C@@H]2O[C@H](CO)[C@H](O)[C@H](O)[C@H]2O[C@@H]2O[C@@H](C)[C@@H](O)[C@@H](O)[C@@H]2O)[C@H]1NC(C)=O [Core 1+fucose, Methyl α-L-fucopyranosyl-(1→2)-β-D-galactopyranosyl-(1→3)-2-acetamido-2-deoxy-α-D-galactopyranoside] | strongest suppression | did not measurably alter | downregulating ECE1 | transcriptionally upregulated YWP1 | most potently blocked filamentation | – | – | – | – |
| CO[C@H]1O[C@H](CO[C@@H]2O[C@H](CO)[C@@H](O)[C@H](O)[C@H]2NC(C)=O)[C@H](O)[C@H](O[C@@H]2O[C@H](CO)[C@H](O)[C@H](O)[C@H]2O[C@@H]2O[C@@H](C)[C@@H](O)[C@@H](O)[C@@H]2O)[C@H]1NC(C)=O [Core 2+fucose, Methyl α-L-fucopyranosyl-(1→2)-β-D-galactopyranosyl-(1→3)-[2-acetamido-2-deoxy-β-D-glucopyranosyl-(1→6)]-2-acetamido-2-deoxy-α-D-galactopyranoside] | – | did not measurably alter | downregulating ECE1 | transcriptionally upregulated YWP1 | – | – | – | – | – |
| CO[C@H]1O[C@H](CO)[C@H](O)[C@H](O[C@@H]2O[C@H](CO)[C@H](O)[C@H](O[C@]3(C(=O)[O-])C[C@H](O)[C@@H](NC(C)=O)[C@H]([C@H](O)[C@H](O)CO)O3)[C@H]2O)[C@H]1NC(C)=O.[Na+] [Core 1+sialic acid, Methyl 3-O-(sodium 5-acetamido-3,5-dideoxy-D-glycero-α-D-galacto-2-nonulopyranosylonate)-β-D-galactopyranosyl-(1→3)-2-acetamido-2-deoxy-α-D-galactopyranoside] | weakest effect | dampened the gene regulatory response of Core 1 | downregulating ECE1 | transcriptionally upregulated YWP1 | less effective at suppressing filamentation | – | – | – | – |
| CO[C@H]1O[C@H](CO)[C@H](O)[C@H](O[C@@H]2O[C@H](CO)[C@H](O)[C@H](O)[C@H]2O)[C@H]1NC(C)=O [Core 1, Methyl β-D-galactopyranosyl-(1→3)-2-acetamido-2-deoxy-α-D-galactopyranoside] | strongest suppression | – | – | – | most potently blocked filamentation | Neither Core 1 nor Core 2 showed toxic effects | upregulated YWP1 expression at 0.1% (w/v) to a similar degree as the intact mucin pool | suppressed ECE1 expression at 0.1% and 0.4%, albeit less strongly than the mucin glycan pool | did not significantly alter YWP1 expression |
